Data taken from patent US20230160878A1, “METHOD OF SCREENING A THERAPY FOR INDUCTION OF FERROPTOSIS” (priority 2020, published 2023).

Experiments:
HMOX1 [1] = experiment: nascent RNA sequencing, transcriptional response to GPX4 inhibitors, HT-1080; format: cell-based; conditions: HT-1080, 1 μM, 1 hour
Protocol: (§1) To assess the transcriptional response of a cell to inhibition of GPX4, we exposed two cell lines to two different chemical inhibitors of GPX4 (ML162 and RSL3; available from Sigma Aldrich and Apex Bio respectively) and examined the transcriptional responses using a nascent RNA sequencing protocol. Briefly, a fibrosarcoma cell line HT-1080 and a lung fibroblast cell line IMR90 were exposed to 1 μM ML162 or 1 μM RSL3 for 1 hour and the nascent RNA sequencing protocol was performed.

HMOX1 [2] = experiment: nascent RNA sequencing, transcriptional response to GPX4 inhibitors, IMR90; format: cell-based; conditions: IMR90, 1 μM, 1 hour
Protocol: as §1

HMOX1 [3] = experiment: RT-qPCR of HMOX1 expression in HT-1080 cells; format: cell-based; conditions: for HMOX1 induction with versus without ferrostatin-1: HT-1080, sodium arsenite 80 μM, hemin 5 μM, RSL3 1 μM, with or without 1 μM ferrostatin-1, four hours, normalized to DMSO
Protocol: (§2) To confirm HMOX1 induction by the GPX4 inhibitors, an RT-qPCR assay was performed using three ferroptosis sensitive cancer cell lines: the fibrosarcoma cell line HT-1080, a Ewing's sarcoma cell line A673, and a renal clear cell carcinoma cell line 786-O. Briefly, cells were exposed to 1 μM ML162 or 1 μM RSL3 for 4 hours, RNA was isolated and an RT-qPCR assay was performed.
To further validate induction of HMOX1 mRNA expression by GPX4 inhibition, RT-qPCR was performed using varying doses of the RSL3 inhibitor. Briefly, HT-1080 cells were exposed to 5 μM RSL3, 1 μM RSL3, and 0.2 μM RSL3 for four hours, RNA was isolated and an RT-qPCR assay was performed to quantify HMOX1 expression. DMSO was used as a control exposure.
(§3) Briefly, HT-1080, A673, and 786-O cells were exposed to 1 μM ML162 or 1 μM RLS3 with or without 1 μM ferrostatin-1 for four hours, RNA was isolated and an RT-qPCR assay was performed to quantify HMOX1 expression. DMSO was used as a control exposure.
Sodium arsenite and hemin are known to be inducers of general oxidative stress in cells. Briefly, HT-1080 cells were exposed to sodium arsenite (80 μM), hemin (5 μM), ML162 (1 μM), or RSL3 (1 μM) with or without 1 μM ferrostatin-1 for four hours, RNA was isolated and an RT-qPCR assay was performed to quantify HMOX1 expression. DMSO was used as a control exposure.

HMOX1 [4] = experiment: RT-qPCR of HMOX1 expression in A673 cells; format: cell-based; conditions: A673, 1 μM; for relative expression of HMOX1 in absence of ferrostatin-1: four hours, relative to ACTB
Protocol: as §2, §3

HMOX1 [5] = experiment: RT-qPCR of HMOX1 expression in 786-O cells; format: cell-based; conditions: 1 μM; for relative expression of HMOX1 in absence of ferrostatin-1: four hours, relative to ACTB
Protocol: as §2, §3

HMOX1 [6] = experiment: RT-qPCR rescue of GPX4 inhibitor-mediated HMOX1 induction by ferrostatin-1 (HT-1080, A673 and 786-O pooled statement); format: cell-based; conditions: 1 μM ferrostatin-1 with 1 μM ML162 or RSL3, HT-1080, A673, 786-O, four hours
Protocol: as §3

[7] = tested on: HT-1080, A673, and 786-O cells lines; conditions: ferrostatin-1 added to culture media; HT-1080, A673, 786-O; cited from earlier work
[8] = HT-1080, 1 μM, four hours, relative to ACTB
[9] = 4 hours, normalized to DMSO control, n=2

Row | Molecule | HMOX1 differential expression (nascent transcription) (HMOX1 [1]) | HMOX1 differential expression (nascent transcription) (HMOX1 [2]) | relative expression of HMOX1 in absence of ferrostatin-1 (HMOX1 [3]; [8]) | relative expression of HMOX1 in absence of ferrostatin-1 (HMOX1 [4]) | relative expression of HMOX1 in absence of ferrostatin-1 (HMOX1 [5]) | HMOX1 induction with versus without ferrostatin-1 (HMOX1 [3]) | also measured
1 | COc1ccc(N(C(=O)CCl)C(C(=O)NCCc2ccccc2)c2cccs2)cc1Cl (centres unmarked) [ML162] | strongly differentially expressed | strongly differentially expressed | HMOX1 expression was observed | HMOX1 expression was observed | HMOX1 expression was observed |  | relative expression of HMOX1 in presence of ferrostatin-1 (HMOX1 [3]; HT-1080, 1 μM with 1 μM ferrostatin-1, four hours, relative to ACTB): induced HMOX1 even in the presence of ferrostatin-1
2 | COC(=O)c1ccc([C@@H]2c3[nH]c4ccccc4c3C[C@@H](C(=O)OC)N2C(=O)CCl)cc1 [RSL3] | strongly differentially expressed | strongly differentially expressed | HMOX1 expression was observed | HMOX1 expression was observed | HMOX1 expression was observed | dependent on lipid peroxidation | fold induction for HMOX1 mRNA (HMOX1 [3]; HT-1080, 1 μM, 4 hours, normalized to DMSO control, n=2): induced; relative expression level of HMOX1, dose dependence (HMOX1 [3]; HT-1080, 5 μM, 1 μM and 0.2 μM, four hours, relative to ACTB): proportional to the dose; fold induction for HMOX1 mRNA (HMOX1 [4]; [9]): induced; fold induction for HMOX1 mRNA (HMOX1 [5]; [9]): induced
3 | CCOC(=O)c1ccc(NC2CCCCC2)c(N)c1 [ferrostatin-1] |  |  |  |  |  |  | effect of ferrostatin-1 on HMOX1 induction by GPX4 inhibitors (HMOX1 [6]): sufficient to prevent induction of HMOX1 in most conditions; cellular viability of cells treated with small molecules that induce lipid peroxidation [7]: rescues cellular viability
4 | O=[As]O [sodium arsenite] |  |  |  |  |  | not affected by the presence of ferrostatin-1 | 
5 | hemin |  |  |  |  |  | not affected by the presence of ferrostatin-1 | 
